Assay results as given in the supplement of paper PMC11208160.

Experiment: recombinant barcode read abundance after kanamycin selection (control-corrected) (log10(CPM+1)); higher = more efficient recombination; sequences stand for … in AGTGCAGAGAAAATCGGCCAGTTTTCTCTGCCTGCAGTCCGCATGCCGT…AGATTTATGCAGCGGACTGCCTTTCTCCCAAAGTGATAAACCGGACAGTATCATGGACCGGTTTTCCCGGTAATCCGTATTTGCAAGGTTGGTTTCACT; site = the 11-nt target
In short: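 Pooled E. coli screen pairing targets with IS621 bridge RNA target-binding loops. Each oligo (promoter, target, barcode, J23119-driven first 104 bridge RNA bases) was Gibson-cloned into a vector with the remaining 73 bp and T7-inducible recombinase, then co-electroporated with a donor plasmid. Two replicates each were plated on chloramphenicol/ampicillin LB agar (control) or chloramphenicol/ampicillin/kanamycin with 0.1 mM IPTG. Recombination efficiency is recombinant-junction barcode counts as CPM, averaged, control-corrected, reported as log10(CPM+1).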
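Also: IS621 recombinase and bridge RNA in Escherichia coli cells.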

Sequence	recombinant barcode read abundance (log10)
GTCATGCCTTGGGTTCTAACCTGTTGCGT (site GTCATGCCTAC)	1.58
GTCATGCCTTGGGTTCTAACCTGTTGCGT (site GTCTTCCCTAC)	0.125
GTCATGTCTTGGGTTCTAACCTGTTGCTG (site ACAGGTCCTTC)	0.0358
GTCATGTCTTGGGTTCTAACCTGTTGCTG (site GTCATGTCTCA)	1.5
GTCCAGCCTTGGGTTCTAACCTGTTGCAT (site CTCTAGCCTAT)	0.0778
GTCCAGCCTTGGGTTCTAACCTGTTGCAT (site GTCCAGCCTAT)	1.98
GTCCCTCCTTGGGTTCTAACCTGTTGCAT (site GTCCCTCCTAA)	0.746
GTCCCTCCTTGGGTTCTAACCTGTTGCAT (site GTCCCTCCTAC)	0.405
GTCCCTCCTTGGGTTCTAACCTGTTGCAT (site GTCCCTCCTAG)	0.16
GTCCCTCCTTGGGTTCTAACCTGTTGCAT (site GTCCCTCCTAT)	1.96
GTCCCTCCTTGGGTTCTAACCTGTTGCTT (site GTCCCTCCTAA)	0.94
GTCCCTCCTTGGGTTCTAACCTGTTGCTT (site GTCCCTCCTAC)	0.104
GTCCCTCCTTGGGTTCTAACCTGTTGCTT (site GTCCCTCCTAG)	0.201
GTCCCTCCTTGGGTTCTAACCTGTTGCTT (site GTCCCTCCTAT)	0.453
GTCCGTCCTTGGGTTCTAACCTGTTGCAT (site GTCCGTCCTAA)	0.178
GTCCGTCCTTGGGTTCTAACCTGTTGCAT (site GTCCGTCCTAC)	0.688
GTCCGTCCTTGGGTTCTAACCTGTTGCAT (site GTCCGTCCTAG)	0.129
GTCCGTCCTTGGGTTCTAACCTGTTGCAT (site GTCCGTCCTAT)	1.77
GTCCTAACTTGGGTTCTAACCTGTTGCAC (site GTCCTAACTGT)	2.08
GTCCTAACTTGGGTTCTAACCTGTTGCAC (site GTCCTACCTTT)	0.0749
GTCCTACCTTGGGTTCTAACCTGTTGCCT (site GTCATACCTAG)	0.0144
GTCCTACCTTGGGTTCTAACCTGTTGCCT (site GTCCTACCTAG)	1.54

Sequence	recombinant barcode read abundance (log10)
GTCCTACCTTGGGTTCTAACCTGTTGCCT (site GTCGTACCTAG)	0.503
GTCCTACCTTGGGTTCTAACCTGTTGCCT (site GTCTTACCTAG)	0.588
GTCGACACTTGGGTTCTAACCTGTTGCCT (site GTCGACACTAG)	1.5
GTCGACACTTGGGTTCTAACCTGTTGCCT (site GTCGAGTCTAG)	0.126
GTCGACGCTTGGGTTCTAACCTGTTGCCT (site GTCGACCCTAG)	0.158
GTCGACGCTTGGGTTCTAACCTGTTGCCT (site GTCGACGCTAG)	0.635
GTCGCCACTTGGGTTCTAACCTGTTGCCT (site GTAGCCACTAG)	0.239
GTCGCCACTTGGGTTCTAACCTGTTGCCT (site GTCGCCACTAG)	0.0549
GTCGCCACTTGGGTTCTAACCTGTTGCCT (site GTGGCCACTAG)	0.159
GTCGCCACTTGGGTTCTAACCTGTTGCCT (site GTTGCCACTAG)	0.196
GTCGCGGCTTGGGTTCTAACCTGTTGCCT (site GTCGCGACTAG)	0.454
GTCGCGGCTTGGGTTCTAACCTGTTGCCT (site GTCGCGCCTAG)	0.182
GTCGCGGCTTGGGTTCTAACCTGTTGCCT (site GTCGCGGCTAG)	0.418
GTCGCGGCTTGGGTTCTAACCTGTTGCCT (site GTCGCGTCTAG)	0.324
GTCGCGTCTTGGGTTCTAACCTGTTGCCT (site GTCGCGACTAG)	0.198
GTCGCGTCTTGGGTTCTAACCTGTTGCCT (site GTCGCGCCTAG)	0.738
GTCGCGTCTTGGGTTCTAACCTGTTGCCT (site GTCGCGGCTAG)	0.392
GTCGCGTCTTGGGTTCTAACCTGTTGCCT (site GTCGCGTCTAG)	0.328
GTCGGAGCTTGGGTTCTAACCTGTTGCCG (site GTCGGAGCTCA)	0.0109
GTCGGAGCTTGGGTTCTAACCTGTTGCCG (site GTCGGAGCTCC)	0.152
GTCGGAGCTTGGGTTCTAACCTGTTGCCG (site GTCGGAGCTCG)	0.218
GTCGGAGCTTGGGTTCTAACCTGTTGCCG (site GTCGGAGCTCT)	0.435

Sequence	recombinant barcode read abundance (log10)
GTCGGAGCTTGGGTTCTAACCTGTTGCGG (site GTCGGAGCTCA)	0.282
GTCGGAGCTTGGGTTCTAACCTGTTGCGG (site GTCGGAGCTCC)	1.97
GTCGGAGCTTGGGTTCTAACCTGTTGCGG (site GTCGGAGCTCG)	0.0393
GTCGGAGCTTGGGTTCTAACCTGTTGCGG (site GTCGGAGCTCT)	1.29
GTCGGAGCTTGGGTTCTAACCTGTTGCTG (site GTCGGAGCTCA)	0.757
GTCGGAGCTTGGGTTCTAACCTGTTGCTG (site GTCGGAGCTCC)	0.511
GTCGGAGCTTGGGTTCTAACCTGTTGCTG (site GTCGGAGCTCG)	0.353
GTCGGAGCTTGGGTTCTAACCTGTTGCTG (site GTCGGAGCTCT)	0.737
GTCGGCACTTGGGTTCTAACCTGTTGCCT (site GTCGGAACTAG)	0.359
GTCGGCACTTGGGTTCTAACCTGTTGCCT (site GTCGGCACTAG)	0.491
GTCGGCACTTGGGTTCTAACCTGTTGCCT (site GTCGGGACTAG)	0.653
GTCGGCACTTGGGTTCTAACCTGTTGCCT (site GTCGGTACTAG)	0.221
GTCGGCGCTTGGGTTCTAACCTGTTGCCT (site GTAGGCGCTAG)	0.107
GTCGGCGCTTGGGTTCTAACCTGTTGCCT (site GTCGGCGCTAG)	0.912
GTCGGCGCTTGGGTTCTAACCTGTTGCCT (site GTGGGCGCTAG)	0.531
GTCGGCGCTTGGGTTCTAACCTGTTGCCT (site GTTGGCGCTAG)	0.256
GTCGGGACTTGGGTTCTAACCTGTTGCCT (site GTCGGAACTAG)	0.863
GTCGGGACTTGGGTTCTAACCTGTTGCCT (site GTCGGCACTAG)	0.113
GTCGGGACTTGGGTTCTAACCTGTTGCCT (site GTCGGGACTAG)	1.51
GTCGGGACTTGGGTTCTAACCTGTTGCCT (site GTCGGTACTAG)	0.0446
GTCGTAGCTTGGGTTCTAACCTGTTGCCT (site GACGTAGCTAG)	0.464
GTCGTAGCTTGGGTTCTAACCTGTTGCCT (site GCCGTAGCTAG)	0.0842

Sequence	recombinant barcode read abundance (log10)
GTCGTAGCTTGGGTTCTAACCTGTTGCCT (site GGCGTAGCTAG)	0.116
GTCGTAGCTTGGGTTCTAACCTGTTGCCT (site GTCGTAGCTAG)	0.256
GTCTAAGCTTGGGTTCTAACCTGTTGCCT (site GTCTAAGCTAG)	0.171
GTCTAAGCTTGGGTTCTAACCTGTTGCCT (site GTCTGAGCTAG)	0.0375
GTCTACTCTTGGGTTCTAACCTGTTGCTG (site GTCTACTCTCA)	1.65
GTCTACTCTTGGGTTCTAACCTGTTGCTG (site GTCTTCTCTAA)	0.0134
GTCTCATCTTGGGTTCTAACCTGTTGCCT (site GTCTAATCTAG)	0.0787
GTCTCATCTTGGGTTCTAACCTGTTGCCT (site GTCTCATCTAG)	0.154
GTCTCATCTTGGGTTCTAACCTGTTGCCT (site GTCTGATCTAG)	0.0892
GTCTCATCTTGGGTTCTAACCTGTTGCCT (site GTCTTATCTAG)	0.0289
GTCTCGGCTTGGGTTCTAACCTGTTGCTG (site GGGTCGGCTCA)	0.0356
GTCTCGGCTTGGGTTCTAACCTGTTGCTG (site GTCTCGGCTCA)	0.0917
GTCTCTACTTGGGTTCTAACCTGTTGCCG (site GTCACTACTCG)	0.234
GTCTCTACTTGGGTTCTAACCTGTTGCCG (site GTCCCTACTCG)	0.593
GTCTCTACTTGGGTTCTAACCTGTTGCCG (site GTCGCTACTCG)	0.117
GTCTCTACTTGGGTTCTAACCTGTTGCCG (site GTCTCTACTCG)	0.0442
GTCTCTTCTTGGGTTCTAACCTGTTGCTA (site GTCTCGTCTAA)	0.0282
GTCTCTTCTTGGGTTCTAACCTGTTGCTA (site GTCTCTTCTTA)	0.306
GTCTTACCTTGGGTTCTAACCTGTTGCCT (site GTCATACCTAG)	0.0521
GTCTTACCTTGGGTTCTAACCTGTTGCCT (site GTCCTACCTAG)	1.21
